Patent publication US20180236011A1, “METHODS TO ENHANCE TUMOR-TARGETING BY BACTERIA” (priority 2017, published 2018)

Experiments:
melanoma PDOX [1] = experiment: Confocal microscopy of S. typhimurium A1-R-GFP tumor targeting (fluorescent area); type: in vivo, Athymic nu/nu nude mice; conditions: drug combined with S. typhimurium A1-R
Procedure: GFP-expressing S. typhimurium A1-R bacteria (AntiCancer Inc.,) were grown overnight on LB medium (Fisher Sci., Hanover Park, Ill., USA) and then diluted 1:10 in LB medium. Bacteria were harvested at late-log phase, washed with PBS, and then diluted in PBS. S. typhimurium A1-R was injected intravenously. A total of 5×10^7 CFU S. typhimurium A1-R in 100 μl PBS was administered to each mouse.
(§1) PDOX mouse models were randomized into four groups of 10 mice each: untreated control (n=10); treated with S. typhimurium A1-R (5×10^7 CFU/100 μl, i.v., qw×2, n=10); treated with TEM (25 mg/kg, p.o., qd×14) combined with S. typhimurium A1-R (5×10^7 CFU/[…]., qw×2, n=10); treated with VEM (30 mg/kg, p.o., qd×14) combined with S. typhimurium A1-R (5×10^7CFU/100 μl, i.v., qw×2, n=10). Tumor length and width were measured twice a week. Tumor volume was calculated with the following formula: Tumor volume (mm3)=length (mm)×width (mm)×width (mm)×½. Data are presented as mean±SD. The tumor volume ratio is defined at the tumor volume at any given time point relative to the initial tumor volume.
The FV1000 confocal microscope (Olympus, Tokyo, Japan) was used for high-resolution imaging. Fluorescence images were obtained using the 20×/0.50 UPLAN FLN and 40×/1.3 oil Olympus UPLAN FLN objectives. The tumor fluorescent area was analyzed with UVP software (UVP, Upland, Calif.).

melanoma PDOX [2] = experiment: Histological analysis (H&E) of treated PDOX tumors; type: in vivo, Athymic nu/nu nude mice; conditions: each drug combined with S. typhimurium A1-R; much more extensive than S. typhimurium A1-R
Procedure: as §1
Fresh tumor samples were fixed in 10% formalin and embedded in paraffin before sectioning and staining. Tissue sections (5 μm) were deparaffinized in xylene and rehydrated in an ethanol series. Hematoxylin and eosin (H&E) staining was performed according to standard protocols. Histological examination was performed with a BHS System Microscope (Olympus Corporation, Tokyo, Japan). Images were acquired with INFINITY ANALYZE software (Lumenera Corporation, Ottawa, Canada).

Cn1nnc2c(C(N)=O)ncn2c1=O [TEM, temozolamide]
S. typhimurium A1-R tumor targeting / accumulation (melanoma PDOX [1]; elevated accumulation leading to extensive tumor necrosis): promoted S. typhimurium A1-R tumor targeting | S. typhimurium A1-R-GFP fluorescent area compared to S. typhimurium A1-R alone (melanoma PDOX [1]; p<0.01): significantly increase | tumor necrosis (histology) (melanoma PDOX [2]): extensive necrosis
